# The source made the active and inactive calls. The calls are words filed in the database; no cut-off is given here.
# What was measured:
# [1] = biological target: Dual specificity tyrosine-phosphorylation-regulated kinase 1B (Homo sapiens) (UniProt Q9Y463); experiment: Inhibition of DYRK1B (unknown origin) at 1 uM by Ambit Kinomescan binding assay relative to control; values are per cent of control
# [2] = biological target: T1, Aurora kinase C (Homo sapiens) (UniProt Q9UQB9); experiment: Inhibition of AURKC (unknown origin) at 1 uM by Ambit Kinomescan binding assay relative to control; values are per cent of control
# T1 sequence (whole entry): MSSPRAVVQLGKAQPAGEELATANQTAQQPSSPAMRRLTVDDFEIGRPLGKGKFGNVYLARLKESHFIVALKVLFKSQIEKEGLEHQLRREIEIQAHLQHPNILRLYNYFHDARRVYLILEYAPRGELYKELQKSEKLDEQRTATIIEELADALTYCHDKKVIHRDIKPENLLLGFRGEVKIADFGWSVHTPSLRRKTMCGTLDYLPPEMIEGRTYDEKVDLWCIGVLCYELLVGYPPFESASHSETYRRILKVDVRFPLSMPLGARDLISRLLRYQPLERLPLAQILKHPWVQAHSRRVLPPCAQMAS
# [3] = biological target: Receptor tyrosine-protein kinase erbB-4 (Homo sapiens) (UniProt Q15303); experiment: Inhibition of ERBB4 (unknown origin) at 1 uM by Ambit Kinomescan binding assay relative to control
# Chain of Receptor tyrosine-protein kinase erbB-4 (Homo sapiens) (Q15303 whole entry): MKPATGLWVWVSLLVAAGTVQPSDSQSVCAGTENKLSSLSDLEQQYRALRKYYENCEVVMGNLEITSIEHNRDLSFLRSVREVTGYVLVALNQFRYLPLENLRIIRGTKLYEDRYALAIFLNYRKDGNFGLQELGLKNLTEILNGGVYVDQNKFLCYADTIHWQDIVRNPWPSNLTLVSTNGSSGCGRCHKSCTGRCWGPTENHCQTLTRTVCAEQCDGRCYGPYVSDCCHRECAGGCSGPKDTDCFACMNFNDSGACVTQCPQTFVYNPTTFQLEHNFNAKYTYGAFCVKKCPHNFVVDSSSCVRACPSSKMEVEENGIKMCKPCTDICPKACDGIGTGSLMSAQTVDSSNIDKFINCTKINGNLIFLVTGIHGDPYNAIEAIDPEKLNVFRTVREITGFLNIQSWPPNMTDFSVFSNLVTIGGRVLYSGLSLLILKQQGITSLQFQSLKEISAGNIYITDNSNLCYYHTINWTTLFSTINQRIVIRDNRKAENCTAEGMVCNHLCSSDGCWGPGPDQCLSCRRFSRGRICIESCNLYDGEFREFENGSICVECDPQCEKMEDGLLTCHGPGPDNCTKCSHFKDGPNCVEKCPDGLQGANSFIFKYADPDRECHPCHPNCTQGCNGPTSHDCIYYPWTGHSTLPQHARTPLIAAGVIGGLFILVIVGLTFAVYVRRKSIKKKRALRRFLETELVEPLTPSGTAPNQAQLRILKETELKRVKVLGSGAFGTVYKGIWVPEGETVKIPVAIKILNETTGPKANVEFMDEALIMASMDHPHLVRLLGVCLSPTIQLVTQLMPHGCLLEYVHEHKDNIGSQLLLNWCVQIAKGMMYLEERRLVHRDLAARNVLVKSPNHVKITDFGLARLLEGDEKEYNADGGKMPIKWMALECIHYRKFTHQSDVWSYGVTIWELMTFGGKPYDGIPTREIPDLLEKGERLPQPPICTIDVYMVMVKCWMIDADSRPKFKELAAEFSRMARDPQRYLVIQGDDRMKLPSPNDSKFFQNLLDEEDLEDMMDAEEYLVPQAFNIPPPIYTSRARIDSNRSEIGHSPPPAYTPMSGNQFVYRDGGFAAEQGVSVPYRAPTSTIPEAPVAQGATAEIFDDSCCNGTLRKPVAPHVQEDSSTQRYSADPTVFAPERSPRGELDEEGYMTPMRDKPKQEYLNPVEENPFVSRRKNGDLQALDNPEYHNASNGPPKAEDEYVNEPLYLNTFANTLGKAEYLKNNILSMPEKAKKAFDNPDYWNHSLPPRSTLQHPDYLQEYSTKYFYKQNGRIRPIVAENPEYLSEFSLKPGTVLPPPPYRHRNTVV
# Ephrin type-A receptor 2 = Ephrin type-A receptor 2 (Homo sapiens, UniProt P29317); experiment: Inhibition of EphA2 ACT labeling site in human A-375 cells at 0.05 uM by KiNativ Profiling analysis relative to control; type: cell-based
# [4] = biological target: Cyclin-dependent kinase 5 (Homo sapiens) (UniProt Q00535); experiment: Inhibition of CDK5 Lys2 labeling site in human A-375 cells at 5 uM by KiNativ Profiling analysis relative to control; type: cell-based
# Chain of Cyclin-dependent kinase 5 (Homo sapiens) (Q00535 whole entry, looked up): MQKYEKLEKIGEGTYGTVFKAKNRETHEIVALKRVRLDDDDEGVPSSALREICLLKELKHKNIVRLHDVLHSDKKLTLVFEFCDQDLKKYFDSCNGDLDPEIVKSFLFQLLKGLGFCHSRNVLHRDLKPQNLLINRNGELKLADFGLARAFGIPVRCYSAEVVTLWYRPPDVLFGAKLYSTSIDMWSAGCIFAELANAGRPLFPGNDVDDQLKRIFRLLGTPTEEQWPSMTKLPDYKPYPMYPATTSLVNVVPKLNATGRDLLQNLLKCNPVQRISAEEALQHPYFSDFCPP
# [5] = biological target: Tyrosine-protein kinase ABL (Homo sapiens) (UniProt P00519+P42684); experiment: Inhibition of ABL1/2 ACT labeling site in human Huh-7 cells at 10 uM by KiNativ Profiling analysis relative to control; type: cell-based
# [6] = biological target: Non-receptor tyrosine-protein kinase TYK2 (Homo sapiens) (UniProt P29597); experiment: Inhibition of TYK2 domain2 ACT labeling site in human A-375 cells at 5 uM by KiNativ Profiling analysis relative to control; type: cell-based
# Chain of Non-receptor tyrosine-protein kinase TYK2 (Homo sapiens) (P29597 whole entry, the tested form may be a part): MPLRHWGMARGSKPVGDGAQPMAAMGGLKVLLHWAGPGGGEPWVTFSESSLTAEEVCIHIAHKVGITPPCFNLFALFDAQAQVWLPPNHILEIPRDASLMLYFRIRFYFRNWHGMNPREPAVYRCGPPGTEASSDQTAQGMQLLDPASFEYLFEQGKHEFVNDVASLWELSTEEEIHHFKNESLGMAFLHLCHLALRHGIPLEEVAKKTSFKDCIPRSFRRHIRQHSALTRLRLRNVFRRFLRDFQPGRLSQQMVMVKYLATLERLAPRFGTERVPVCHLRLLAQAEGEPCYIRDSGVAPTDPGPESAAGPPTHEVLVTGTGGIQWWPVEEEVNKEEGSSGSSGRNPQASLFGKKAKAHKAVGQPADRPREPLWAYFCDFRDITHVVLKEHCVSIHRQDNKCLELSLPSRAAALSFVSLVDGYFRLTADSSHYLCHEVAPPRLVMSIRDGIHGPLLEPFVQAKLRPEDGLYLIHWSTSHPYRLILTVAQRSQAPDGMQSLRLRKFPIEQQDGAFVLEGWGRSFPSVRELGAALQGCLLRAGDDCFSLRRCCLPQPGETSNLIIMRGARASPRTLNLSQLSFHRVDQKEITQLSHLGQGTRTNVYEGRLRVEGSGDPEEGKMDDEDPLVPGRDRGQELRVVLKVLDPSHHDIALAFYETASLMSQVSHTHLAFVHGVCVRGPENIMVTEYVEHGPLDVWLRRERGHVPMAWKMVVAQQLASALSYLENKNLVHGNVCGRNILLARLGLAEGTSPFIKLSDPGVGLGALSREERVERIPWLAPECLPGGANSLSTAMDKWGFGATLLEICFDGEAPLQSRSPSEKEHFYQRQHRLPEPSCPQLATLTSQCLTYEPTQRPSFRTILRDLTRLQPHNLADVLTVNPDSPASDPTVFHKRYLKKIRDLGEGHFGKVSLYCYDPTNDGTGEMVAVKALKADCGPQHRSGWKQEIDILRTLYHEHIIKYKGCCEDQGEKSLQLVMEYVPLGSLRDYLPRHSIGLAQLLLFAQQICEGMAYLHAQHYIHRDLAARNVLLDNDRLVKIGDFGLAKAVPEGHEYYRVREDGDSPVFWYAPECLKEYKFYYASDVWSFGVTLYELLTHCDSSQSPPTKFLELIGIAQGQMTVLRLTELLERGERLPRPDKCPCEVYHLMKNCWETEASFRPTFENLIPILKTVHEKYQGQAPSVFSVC
# [7] = biological target: Serine/threonine-protein kinase PAK 5 (Homo sapiens) (UniProt Q9P286); experiment: Inhibition of PAK7 (unknown origin) at 10 uM by Ambit Kinomescan binding assay
# [8] = biological target: T2, Aurora kinase A (Homo sapiens) (UniProt O14965); experiment: Inhibition of AurA K2 labeling site harbouring VIHRDIKPENLLLGSAGELK in human Huh-7 cells at 10 uM by KiNativ Profiling analysis relative to control; type: cell-based
# T2 sequence (whole entry): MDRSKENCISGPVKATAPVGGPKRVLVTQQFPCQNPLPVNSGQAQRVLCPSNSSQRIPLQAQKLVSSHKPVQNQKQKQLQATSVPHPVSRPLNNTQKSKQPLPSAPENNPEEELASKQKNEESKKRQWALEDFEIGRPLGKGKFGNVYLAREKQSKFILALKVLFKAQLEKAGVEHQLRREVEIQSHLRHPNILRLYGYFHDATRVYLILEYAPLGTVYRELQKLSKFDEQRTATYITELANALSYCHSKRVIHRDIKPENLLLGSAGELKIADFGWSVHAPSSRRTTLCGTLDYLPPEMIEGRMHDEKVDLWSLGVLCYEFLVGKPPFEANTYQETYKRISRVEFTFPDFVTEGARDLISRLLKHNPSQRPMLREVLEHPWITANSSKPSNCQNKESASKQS
# [9] = biological target: Serine/threonine-protein kinase 32B (Homo sapiens) (UniProt Q9NY57); experiment: Inhibition of YANK2 (unknown origin) at 10 uM by Ambit Kinomescan binding assay
# Chain of Serine/threonine-protein kinase 32B (Homo sapiens) (Q9NY57 whole entry): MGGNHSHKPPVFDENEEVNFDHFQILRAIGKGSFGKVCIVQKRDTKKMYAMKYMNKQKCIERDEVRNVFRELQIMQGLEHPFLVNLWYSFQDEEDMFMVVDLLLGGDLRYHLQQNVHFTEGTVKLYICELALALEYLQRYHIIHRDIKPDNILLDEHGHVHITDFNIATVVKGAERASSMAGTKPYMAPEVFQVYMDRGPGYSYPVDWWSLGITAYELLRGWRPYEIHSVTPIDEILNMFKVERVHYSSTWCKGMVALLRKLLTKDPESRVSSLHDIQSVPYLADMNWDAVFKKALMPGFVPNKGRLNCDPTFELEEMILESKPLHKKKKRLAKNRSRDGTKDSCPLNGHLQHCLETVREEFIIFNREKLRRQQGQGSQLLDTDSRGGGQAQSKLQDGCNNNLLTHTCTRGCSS
# [10] = Inhibition of KHS1/2 K2 labeling site in human Huh-7 cells at 1 uM by KiNativ Profiling analysis relative to control; details: condition cancer
# [11] = biological target: Serine/threonine-protein kinase/endoribonuclease IRE1 (Homo sapiens) (UniProt O75460); experiment: Inhibition of IRE1 Lys2 labeling site in human Huh-7 cell lysate at 1 uM by KiNativ Profiling analysis relative to control; type: subcellular
# [12] = biological target: Mitogen-activated protein kinase kinase kinase kinase 4 (Homo sapiens, UniProt O95819); experiment: Inhibition of ZC1/HGK Lys2 labeling site in human Huh-7 cells at 1 uM by KiNativ Profiling analysis relative to control; type: cell-based
# Chain of Mitogen-activated protein kinase kinase kinase kinase 4 (O95819 2-1239 limits assumed): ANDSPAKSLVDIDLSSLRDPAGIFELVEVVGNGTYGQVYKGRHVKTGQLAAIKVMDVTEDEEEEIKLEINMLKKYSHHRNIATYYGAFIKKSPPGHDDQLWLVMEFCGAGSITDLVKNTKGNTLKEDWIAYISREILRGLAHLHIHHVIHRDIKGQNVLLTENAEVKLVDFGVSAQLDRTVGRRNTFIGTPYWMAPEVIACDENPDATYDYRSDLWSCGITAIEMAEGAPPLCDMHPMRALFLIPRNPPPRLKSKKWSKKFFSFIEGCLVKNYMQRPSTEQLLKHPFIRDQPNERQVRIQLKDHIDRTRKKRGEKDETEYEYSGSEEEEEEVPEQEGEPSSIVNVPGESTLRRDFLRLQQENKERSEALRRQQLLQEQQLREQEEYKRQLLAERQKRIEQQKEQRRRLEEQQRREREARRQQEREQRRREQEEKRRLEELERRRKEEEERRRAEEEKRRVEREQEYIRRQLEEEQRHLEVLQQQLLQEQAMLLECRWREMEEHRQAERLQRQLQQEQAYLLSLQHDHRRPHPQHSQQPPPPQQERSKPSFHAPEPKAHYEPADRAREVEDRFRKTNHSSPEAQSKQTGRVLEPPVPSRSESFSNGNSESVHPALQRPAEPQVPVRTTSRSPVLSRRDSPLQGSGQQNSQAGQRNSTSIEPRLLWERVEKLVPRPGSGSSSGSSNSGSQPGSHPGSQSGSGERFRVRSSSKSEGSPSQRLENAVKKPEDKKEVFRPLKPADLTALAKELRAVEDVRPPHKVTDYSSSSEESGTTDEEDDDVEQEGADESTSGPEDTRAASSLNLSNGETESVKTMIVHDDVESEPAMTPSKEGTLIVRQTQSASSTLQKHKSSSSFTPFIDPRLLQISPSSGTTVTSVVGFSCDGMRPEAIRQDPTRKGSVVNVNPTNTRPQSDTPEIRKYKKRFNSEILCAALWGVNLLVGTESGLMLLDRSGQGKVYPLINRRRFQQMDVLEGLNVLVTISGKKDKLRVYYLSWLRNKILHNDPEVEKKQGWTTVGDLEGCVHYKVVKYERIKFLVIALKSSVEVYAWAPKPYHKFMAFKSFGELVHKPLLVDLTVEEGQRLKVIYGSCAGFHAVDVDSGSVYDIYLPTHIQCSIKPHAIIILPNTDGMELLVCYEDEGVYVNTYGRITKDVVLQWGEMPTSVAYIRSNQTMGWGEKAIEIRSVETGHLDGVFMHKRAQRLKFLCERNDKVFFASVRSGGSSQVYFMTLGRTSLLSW
# [13] = biological target: Cyclin-dependent kinase 1 (Homo sapiens) (UniProt P06493); experiment: Inhibition of CDC2 Lys2 labeling site in human Huh-7 cells at 1 uM by KiNativ Profiling analysis relative to control; type: cell-based
# Chain of Cyclin-dependent kinase 1 (Homo sapiens) (P06493 whole entry, looked up): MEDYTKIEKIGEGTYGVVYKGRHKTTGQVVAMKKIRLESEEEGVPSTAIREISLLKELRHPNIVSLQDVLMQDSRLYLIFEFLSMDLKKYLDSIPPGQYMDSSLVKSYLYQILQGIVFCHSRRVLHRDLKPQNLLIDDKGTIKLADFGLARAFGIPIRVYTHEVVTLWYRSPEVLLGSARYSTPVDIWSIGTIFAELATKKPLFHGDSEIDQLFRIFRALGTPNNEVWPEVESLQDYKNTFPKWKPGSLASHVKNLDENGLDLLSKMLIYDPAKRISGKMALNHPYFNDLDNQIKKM
# [14] = biological target: Serine/threonine-protein kinase MARK2 (Homo sapiens) (UniProt Q7KZI7); experiment: Inhibition of MARK2 Lys1 labeling site harbouring HILTGKEVAVKIIDKTQLNSSSLQK in human Huh-7 cell lysate at 1 uM by KiNativ Profiling analysis relative to control; type: subcellular
# [15] = biological target: T3, Mitogen-activated protein kinase kinase kinase 2 (Homo sapiens) (UniProt Q9Y2U5); experiment: Inhibition of MAP3K2 Lys2 labeling site in human Huh-7 cell lysate at 1 uM by KiNativ Profiling analysis relative to control; type: subcellular
# T3 sequence (whole entry): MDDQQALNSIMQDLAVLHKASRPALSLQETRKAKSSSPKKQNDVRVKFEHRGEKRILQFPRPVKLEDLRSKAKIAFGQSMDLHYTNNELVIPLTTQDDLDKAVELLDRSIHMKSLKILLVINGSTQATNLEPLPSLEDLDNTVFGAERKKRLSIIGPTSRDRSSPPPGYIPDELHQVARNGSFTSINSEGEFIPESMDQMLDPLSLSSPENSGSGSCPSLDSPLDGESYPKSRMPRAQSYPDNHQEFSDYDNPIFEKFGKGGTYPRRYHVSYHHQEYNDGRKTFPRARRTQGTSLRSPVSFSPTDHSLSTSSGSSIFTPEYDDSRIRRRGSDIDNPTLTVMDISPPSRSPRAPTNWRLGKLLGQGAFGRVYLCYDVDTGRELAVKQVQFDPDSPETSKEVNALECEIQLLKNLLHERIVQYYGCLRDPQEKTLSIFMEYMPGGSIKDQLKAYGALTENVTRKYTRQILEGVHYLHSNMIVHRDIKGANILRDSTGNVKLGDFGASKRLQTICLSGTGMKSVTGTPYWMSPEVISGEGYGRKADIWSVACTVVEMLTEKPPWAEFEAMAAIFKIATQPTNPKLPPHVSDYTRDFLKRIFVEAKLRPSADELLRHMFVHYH
# [16] = biological target: Serine/threonine-protein kinase PLK1 (Homo sapiens) (UniProt P53350); experiment: Inhibition of PLK1 Lys2 labeling site in human Huh-7 cells at 1 uM by KiNativ Profiling analysis relative to control; type: cell-based
# [17] = biological target: Cyclin-dependent kinase 2 (Homo sapiens) (UniProt P24941); experiment: Inhibition of CDK2 Lys1 labeling site in human Huh-7 cell lysate at 1 uM by KiNativ Profiling analysis relative to control; type: subcellular
compound,measurement,setting,value
CCN1CCN(Cc2ccc(NC(=O)c3ccc(C)c(/C=C/c4cnc5[nH]ccc5c4OC)c3)cc2C(F)(F)F)CC1,residual activity,[1],73%
same,residual activity,[2],34%
same,inhibition,[3],3%
same,inhibition,Ephrin type-A receptor 2,83.7%
CCN1CCN(Cc2ccc(NC(=O)c3ccc(C)c(Oc4ccnc5[nH]ccc45)c3)cc2C(F)(F)F)CC1,inhibition,[4],-6.8%
same,inhibition,[5],98.4%
same,inhibition,[6],50.1%
same,inhibition,[7],inactive
same,inhibition,[8],inactive
same,inhibition,[9],inactive
same,inhibition at 1 µM,[10],6.6%
CNc1cc(Oc2cc(C(=O)Nc3cc(N4CCN(C)CC4)cc(C(F)(F)F)c3)ccc2C)ncn1,inhibition,[11],-2.5%
same,inhibition,[12],9.7%
same,inhibition,[13],5%
same,inhibition,[14],-1.9%
same,inhibition,[15],1.9%
same,inhibition,[16],1.3%
same,inhibition,[17],17.7%
